These results are taken from US9809623B2, “α4β7 peptide monomer and dimer antagonists” (Protagonist Therapeutics, Inc., priority 2014, dated 2017).

Numbered stars: 1 amine (or outer) side, 2 acyl side, 3 side chain; on linkers, the order of the positions; unused ones are H or OH. Bridge positions count the residues as written; N and C are the ends. Square brackets hold non-standard residues; d marks the D form. Peptide text beside a SMILES is read from it. I, II: the chains in the order shown. 2Nal = N[C@@H](Cc1ccc2ccccc2c1)C(=O)O; Diglycolyl = O=C(COCC(=O)[*:2])[*:1]; NMeR = CN[C@@H](CCCNC(=N)N)C(=O)O; hPhe = N[C@@H](CCc1ccccc1)C(=O)O; Tic = O=C(O)[C@@H]1Cc2ccccc2CN1; Cit = NC(=O)NCCC[C@H](N)C(=O)O; NMeK = CN[C@@H](CCCCN)C(=O)O; Pen = CC(C)(S)[C@H](N)C(=O)O; dNMeK = CN[C@H](CCCCN)C(=O)O; Dab = NCC[C@H](N)C(=O)O; Dap = NC[C@H](N)C(=O)O Where only a bound is given, the exact number is not on record here.

For one series, the target named is α4β7 (Homo sapiens, UniProt P13612+P26010). The series is described as follows: α4β7-MAdCAM Cell Adhesion Assay (RPMI 8866 human cells). To be noted: Table 3-B, Potency (α4β7); range classes; read-out: α4β7 cell (Hu) IC50. Further details: host or cells: RPMI 8866 human B lymphoblastoid cells. Type of series: cell-based. A digest of the protocol: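 Adhesion read-out: MTT absorbance at 570 nm minus no-cell wells, after three washes. Plates coated with rh MAdCAM-1/Fc received peptide dilutions plus 200,000 RPMI 8866 cells in Mn2+ (1 mM)-supplemented DMEM, 0.1% BSA, HEPES pH 7, incubated 30-45 min, 37 °C.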

The nature of series [1]: Simulated Intestinal Fluid (SIF) Stability Assay. Type of series: in vitro ADME, porcine. To be noted: pig, simulated intestinal fluid (SIF) with 1% porcine pancreatin, pH 6.5, Table 3-B; > means experiment was stopped at that time and half life was not reached; read-out: Stabilty SIF t1/2. The procedure:
Studies were carried out in simulated intestinal fluid (SIF) to evaluate intestinal stability of the peptide molecules of the instant invention. To prepare the SIF reagent, blank FASSIF was prepared by dissolving 0.348 g NaOH, 3.954 g sodium phosphate monobasic monohydrate and 6.186 g NaCl in a final volume of 1 liter water (final pH=6.5). To this solution, 24 g porcine pancreatin (Sigma catalog P7545) was added and stirred for 30 minutes (final pancreatin concentration is 2.4%). The solution was filtered through a cheese cloth and a No. 1 Whatman filter, and 10 ml aliquots were stored at −70° C. To run the reaction, a 10 ml aliquot was thawed at 37° C., and 125 ul aliquots were removed and mixed with an equal volume of blank FASSIF. The peptide stock solution (10 mM in 100% DMSO) was diluted 75-fold in blank FASSIF. A 50 μl aliquot of the diluted peptide was combined with 125 μl pancreatin (2.4%) and 125 μl blank FASSIF to yield final concentrations of 1% pancreatin and 22 μM peptide. The reactions were incubated at 37° C., and at various time points 50 μl aliquots were removed and added to 200 μl of quench solution containing 50% acetonitrile, 50% methanol, 5% formic acid, and 1 μg/ml internal standard. The quenched samples were centrifuged at 10,000 rpm for 10 minutes, and the supernatants were analyzed by LCMS/MS. The percent remaining at each time point was calculated based on the peak area response ratio of test to compound to internal standard. Half-lives were calculated by fitting to a first-order exponential decay equation using GraphPad.

Chain of α4β7 (P13612 34-1032): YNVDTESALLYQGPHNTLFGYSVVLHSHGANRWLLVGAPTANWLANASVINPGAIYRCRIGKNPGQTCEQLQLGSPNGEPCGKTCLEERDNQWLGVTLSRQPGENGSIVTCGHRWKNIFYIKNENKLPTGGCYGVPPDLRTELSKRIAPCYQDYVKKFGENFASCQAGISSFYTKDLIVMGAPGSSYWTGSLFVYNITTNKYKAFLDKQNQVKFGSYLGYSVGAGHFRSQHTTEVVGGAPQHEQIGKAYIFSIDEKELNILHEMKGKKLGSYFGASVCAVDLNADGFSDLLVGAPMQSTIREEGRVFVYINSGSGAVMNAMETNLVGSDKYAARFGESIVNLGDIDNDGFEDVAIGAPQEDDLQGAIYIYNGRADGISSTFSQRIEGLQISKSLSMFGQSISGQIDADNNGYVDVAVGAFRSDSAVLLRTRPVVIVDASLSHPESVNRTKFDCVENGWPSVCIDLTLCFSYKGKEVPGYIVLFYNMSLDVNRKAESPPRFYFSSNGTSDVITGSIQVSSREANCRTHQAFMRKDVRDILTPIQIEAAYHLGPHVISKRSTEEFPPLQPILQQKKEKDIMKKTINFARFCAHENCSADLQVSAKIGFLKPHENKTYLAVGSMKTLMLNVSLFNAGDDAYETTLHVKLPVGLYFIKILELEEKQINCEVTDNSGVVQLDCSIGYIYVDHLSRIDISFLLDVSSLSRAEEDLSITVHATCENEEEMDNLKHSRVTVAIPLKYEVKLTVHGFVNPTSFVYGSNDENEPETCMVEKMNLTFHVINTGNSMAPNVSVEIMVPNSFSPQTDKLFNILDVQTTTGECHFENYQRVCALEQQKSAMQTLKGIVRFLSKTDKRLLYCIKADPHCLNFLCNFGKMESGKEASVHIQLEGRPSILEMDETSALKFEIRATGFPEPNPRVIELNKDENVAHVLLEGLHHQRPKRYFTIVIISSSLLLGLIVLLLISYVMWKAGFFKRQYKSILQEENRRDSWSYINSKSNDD
Chain of α4β7 (P26010 20-798): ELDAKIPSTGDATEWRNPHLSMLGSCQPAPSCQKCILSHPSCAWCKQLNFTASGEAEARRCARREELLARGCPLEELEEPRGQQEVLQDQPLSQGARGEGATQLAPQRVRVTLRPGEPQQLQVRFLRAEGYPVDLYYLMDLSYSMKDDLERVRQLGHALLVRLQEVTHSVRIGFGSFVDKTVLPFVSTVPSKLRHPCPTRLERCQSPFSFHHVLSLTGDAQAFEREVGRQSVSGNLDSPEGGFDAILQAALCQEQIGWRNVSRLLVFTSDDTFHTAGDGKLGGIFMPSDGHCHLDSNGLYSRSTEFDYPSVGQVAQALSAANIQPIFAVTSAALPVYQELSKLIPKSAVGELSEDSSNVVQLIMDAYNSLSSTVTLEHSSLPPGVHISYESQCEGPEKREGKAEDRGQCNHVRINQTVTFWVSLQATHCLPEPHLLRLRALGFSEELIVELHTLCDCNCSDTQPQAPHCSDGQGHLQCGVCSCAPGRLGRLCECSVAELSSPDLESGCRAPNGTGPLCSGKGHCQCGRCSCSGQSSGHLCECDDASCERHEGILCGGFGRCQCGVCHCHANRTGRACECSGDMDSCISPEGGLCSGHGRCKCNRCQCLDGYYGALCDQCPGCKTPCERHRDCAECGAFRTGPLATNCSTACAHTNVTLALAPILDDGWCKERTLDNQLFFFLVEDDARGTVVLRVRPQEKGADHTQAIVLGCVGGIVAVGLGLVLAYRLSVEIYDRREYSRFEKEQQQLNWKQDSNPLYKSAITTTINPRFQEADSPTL

On to `CC(=O)N[C@H](CCCCN)C(=O)N[C@H]1CSSC[C@@H](C(=O)N[C@@H](Cc2c[nH]c3ccccc23)C(=O)N[C@H](CCCCNC(=O)COCC(=O)NCCCC[C@@H](NC(=O)[C@H](Cc2c[nH]c3ccccc23)NC(=O)[C@@H]2CSSC[C@H](NC(=O)[C@@H](CCCCN)NC(C)=O)C(=O)N(C)[C@@H](CCCNC(=N)N)C(=O)N[C@@H](CO)C(=O)N[C@@H](CC(=O)O)C(=O)N[C@@H]([C@@H](C)O)C(=O)N[C@@H](CC(C)C)C(=O)N2)C(N)=O)C(N)=O)NC(=O)[C@H](CC(C)C)NC(=O)[C@H]([C@@H](C)O)NC(=O)[C@H](CC(=O)O)NC(=O)[C@H](CO)NC(=O)[C@H](CCCNC(=N)N)N(C)C1=O` [compound 4] (I: Ac-[dK]C[NMeR]SDTLCW[dK]-NH2 / II: Ac-[dK]C[NMeR]SDTLCW[dK]-NH2; disulfide I:2-I:8, II:2-II:8; linker I:10-II:10 via Diglycolyl), for which the IC50 (in general, the midpoint of a concentration-inhibition curve) on α4β7 was 10 to 25 nM. Also, in series [1], the half-life at 22 μM was below 0.333 h.
With `CC(=O)N[C@@H]1C(=O)N(C)[C@@H](CCCNC(=N)N)C(=O)N[C@@H](CO)C(=O)N[C@@H](CC(=O)O)C(=O)N[C@@H]([C@@H](C)O)C(=O)N[C@@H](CC(C)C)C(=O)N[C@H](C(=O)N[C@@H](Cc2ccc3ccccc3c2)C(=O)N[C@H](Cc2ccc(O)cc2)C(=O)N[C@H](CCCCNC(=O)COCC(=O)NCCCC[C@@H](NC(=O)[C@@H](Cc2ccc(O)cc2)NC(=O)[C@H](Cc2ccc3ccccc3c2)NC(=O)[C@H]2NC(=O)[C@H](CC(C)C)NC(=O)[C@H]([C@@H](C)O)NC(=O)[C@H](CC(=O)O)NC(=O)[C@H](CO)NC(=O)[C@H](CCCNC(=N)N)N(C)C(=O)[C@@H](NC(C)=O)C(C)(C)SSC2(C)C)C(N)=O)C(N)=O)C(C)(C)SSC1(C)C` [compound 27] (I: Ac-[Pen][NMeR]SDTL[Pen][2Nal][dY][dK]-NH2 / II: Ac-[Pen][NMeR]SDTL[Pen][2Nal][dY][dK]-NH2; disulfide I:1-I:7, II:1-II:7; linker I:10-II:10 via Diglycolyl), the IC50 on α4β7 was 25 to 50 nM. For the same compound, the half-life at 22 μM in series [1] is above 3 h.
In the case of `CC(=O)N[C@@H]1C(=O)N(C)[C@@H](CCCNC(=N)N)C(=O)N[C@@H](CO)C(=O)N[C@@H](CC(=O)O)C(=O)N[C@@H]([C@@H](C)O)C(=O)N[C@@H](CC(C)C)C(=O)N[C@H](C(=O)N[C@@H](Cc2ccc3ccccc3c2)C(=O)N[C@H](CCC(=O)O)C(=O)N(C)[C@H](CCCCNC(=O)COCC(=O)NCCCC[C@H](C(N)=O)N(C)C(=O)[C@@H](CCC(=O)O)NC(=O)[C@H](Cc2ccc3ccccc3c2)NC(=O)[C@H]2NC(=O)[C@H](CC(C)C)NC(=O)[C@H]([C@@H](C)O)NC(=O)[C@H](CC(=O)O)NC(=O)[C@H](CO)NC(=O)[C@H](CCCNC(=N)N)N(C)C(=O)[C@@H](NC(C)=O)C(C)(C)SSC2(C)C)C(N)=O)C(C)(C)SSC1(C)C` [compound 39] (I: Ac-[Pen][NMeR]SDTL[Pen][2Nal][dE][dNMeK]-NH2 / II: Ac-[Pen][NMeR]SDTL[Pen][2Nal][dE][dNMeK]-NH2; disulfide I:1-I:7, II:1-II:7; linker I:10-II:10 via Diglycolyl), the IC50 on α4β7 lay within 10 to 25 nM. In addition, the half-life at 22 μM in series [1] was above 3 h.
The like results for `CC(=O)N[C@@H]1C(=O)N(C)[C@@H](CCCNC(=N)N)C(=O)N[C@@H](CO)C(=O)N[C@@H](CC(=O)O)C(=O)N[C@@H]([C@@H](C)O)C(=O)N[C@@H](CC(C)C)C(=O)N[C@H](C(=O)N[C@@H](CCc2ccccc2)C(=O)N[C@@H](CCC(=O)O)C(=O)N[C@H](CCCCNC(=O)COCC(=O)NCCCC[C@@H](NC(=O)[C@H](CCC(=O)O)NC(=O)[C@H](CCc2ccccc2)NC(=O)[C@H]2NC(=O)[C@H](CC(C)C)NC(=O)[C@H]([C@@H](C)O)NC(=O)[C@H](CC(=O)O)NC(=O)[C@H](CO)NC(=O)[C@H](CCCNC(=N)N)N(C)C(=O)[C@@H](NC(C)=O)C(C)(C)SSC2(C)C)C(N)=O)C(N)=O)C(C)(C)SSC1(C)C` [compound 45] (I: Ac-[Pen][NMeR]SDTL[Pen][hPhe]E[dK]-NH2 / II: Ac-[Pen][NMeR]SDTL[Pen][hPhe]E[dK]-NH2; disulfide I:1-I:7, II:1-II:7; linker I:10-II:10 via Diglycolyl) were, in that order, 25 to 50 nM and 0.617 h.
On the same counts, the results for `CC(=O)N[C@@H]1C(=O)N(C)[C@@H](CCCNC(=N)N)C(=O)N[C@@H](CO)C(=O)N[C@@H](CC(=O)O)C(=O)N[C@@H]([C@@H](C)O)C(=O)N[C@@H](CC(C)C)C(=O)N[C@H](C(=O)N[C@@H](Cc2c[nH]c3ccccc23)C(=O)N[C@H](CCC(=O)O)C(=O)N[C@@H](CN)C(N)=O)C(C)(C)SSC1(C)C` [compound 55] (Ac-[Pen][NMeR]SDTL[Pen]W[dE][Dap]-NH2; disulfide 1-7) are 100 to 500 nM and above 3 h.
On the same counts, the results for `CC(=O)N[C@@H]1C(=O)N(C)[C@@H](CCCNC(=N)N)C(=O)N[C@@H](CO)C(=O)N[C@@H](CC(=O)O)C(=O)N[C@@H]([C@@H](C)O)C(=O)N[C@@H](CC(C)C)C(=O)N[C@H](C(=O)N[C@@H](Cc2c[nH]c3ccccc23)C(=O)N[C@H](CCC(=O)O)C(=O)N[C@@H](CCN)C(N)=O)C(C)(C)SSC1(C)C` [compound 56] (Ac-[Pen][NMeR]SDTL[Pen]W[dE][Dab]-NH2; disulfide 1-7) are 500 to 1000 nM and above 3 h.
Consider `CC(=O)N[C@@H]1C(=O)N(C)[C@@H](CCCNC(=N)N)C(=O)N[C@@H](CO)C(=O)N[C@@H](CC(=O)O)C(=O)N[C@@H]([C@@H](C)O)C(=O)N[C@@H](CC(C)C)C(=O)N[C@H](C(=O)N[C@@H](Cc2c[nH]c3ccccc23)C(=O)N(C)[C@@H](CCCCNC(=O)COCC(=O)NCCCC[C@@H](C(N)=O)N(C)C(=O)[C@H](Cc2c[nH]c3ccccc23)NC(=O)[C@H]2NC(=O)[C@H](CC(C)C)NC(=O)[C@H]([C@@H](C)O)NC(=O)[C@H](CC(=O)O)NC(=O)[C@H](CO)NC(=O)[C@H](CCCNC(=N)N)N(C)C(=O)[C@@H](NC(C)=O)C(C)(C)SSC2(C)C)C(N)=O)C(C)(C)SSC1(C)C` [compound 77] (I: Ac-[Pen][NMeR]SDTL[Pen]W[NMeK]-NH2 / II: Ac-[Pen][NMeR]SDTL[Pen]W[NMeK]-NH2; disulfide I:1-I:7, II:1-II:7; linker I:9-II:9 via Diglycolyl), for which, on α4β7, the IC50 lay in the range of 100 to 500 nM. Moreover, the half-life at 22 μM in series [1] is above 3 h.
The like results for `CC(=O)N[C@@H]1C(=O)N(C)[C@@H](CCCNC(=N)N)C(=O)N[C@@H](CO)C(=O)N[C@@H](CC(=O)O)C(=O)N[C@@H]([C@@H](C)O)C(=O)N[C@@H](CC(C)C)C(=O)N[C@H](C(=O)N2Cc3ccccc3C[C@H]2C(=O)N[C@H](CCC(=O)O)C(=O)N[C@H](CCCCNC(=O)COCC(=O)NCCCC[C@@H](NC(=O)[C@@H](CCC(=O)O)NC(=O)[C@@H]2Cc3ccccc3CN2C(=O)[C@H]2NC(=O)[C@H](CC(C)C)NC(=O)[C@H]([C@@H](C)O)NC(=O)[C@H](CC(=O)O)NC(=O)[C@H](CO)NC(=O)[C@H](CCCNC(=N)N)N(C)C(=O)[C@@H](NC(C)=O)C(C)(C)SSC2(C)C)C(N)=O)C(N)=O)C(C)(C)SSC1(C)C` [compound 80] (I: Ac-[Pen][NMeR]SDTL[Pen][Tic][dE][dK]-NH2 / II: Ac-[Pen][NMeR]SDTL[Pen][Tic][dE][dK]-NH2; disulfide I:1-I:7, II:1-II:7; linker I:10-II:10 via Diglycolyl) were, in that order, 50 to 100 nM and above 3 h.
On the same counts, the results for `CC(=O)N[C@@H]1C(=O)N(C)[C@@H](CCCNC(=N)N)C(=O)N[C@@H](CO)C(=O)N[C@@H](CC(=O)O)C(=O)N[C@@H]([C@@H](C)O)C(=O)N[C@@H](CC(C)C)C(=O)N[C@H](C(=O)N[C@@H](Cc2c[nH]c3ccccc23)C(=O)N[C@@H](CCCNC(N)=O)C(=O)N[C@H](CCCCNC(=O)COCC(=O)NCCCC[C@@H](NC(=O)[C@H](CCCNC(N)=O)NC(=O)[C@H](Cc2c[nH]c3ccccc23)NC(=O)[C@H]2NC(=O)[C@H](CC(C)C)NC(=O)[C@H]([C@@H](C)O)NC(=O)[C@H](CC(=O)O)NC(=O)[C@H](CO)NC(=O)[C@H](CCCNC(=N)N)N(C)C(=O)[C@@H](NC(C)=O)C(C)(C)SSC2(C)C)C(N)=O)C(N)=O)C(C)(C)SSC1(C)C` [compound 84] (I: Ac-[Pen][NMeR]SDTL[Pen]W[Cit][dK]-NH2 / II: Ac-[Pen][NMeR]SDTL[Pen]W[Cit][dK]-NH2; disulfide I:1-I:7, II:1-II:7; linker I:10-II:10 via Diglycolyl) are 10 to 25 nM and below 0.333 h.
